For this experiment, the target named is BTK protein in human whole blood (Homo sapiens (Human), UniProt Q06187). Nature of the experiment: Btk protein in human whole blood MSD ELISA based assay (BTK degradation). Particulars: 6 hours, maximum BTK degradation compared to DMSO only treated samples, read-out: hWB BTK dMax (%). The experiment is classed as cell-based. The procedure: Btk protein degradation was tested using an Meso Scale Discovery-ELISA system (MSD-ELISA): (1) Test compounds were added to human whole blood; (2) human whole blood cells treated with test compounds were lysed; (3) lysed cells were treated with capture antibody, an antibody to Btk; (4) lysed cells were treated with […] to Btk; and (5) lysed cells were treated with anti-mouse antibody (tagged).
Chain of BTK protein in human whole blood (Q06187 whole entry): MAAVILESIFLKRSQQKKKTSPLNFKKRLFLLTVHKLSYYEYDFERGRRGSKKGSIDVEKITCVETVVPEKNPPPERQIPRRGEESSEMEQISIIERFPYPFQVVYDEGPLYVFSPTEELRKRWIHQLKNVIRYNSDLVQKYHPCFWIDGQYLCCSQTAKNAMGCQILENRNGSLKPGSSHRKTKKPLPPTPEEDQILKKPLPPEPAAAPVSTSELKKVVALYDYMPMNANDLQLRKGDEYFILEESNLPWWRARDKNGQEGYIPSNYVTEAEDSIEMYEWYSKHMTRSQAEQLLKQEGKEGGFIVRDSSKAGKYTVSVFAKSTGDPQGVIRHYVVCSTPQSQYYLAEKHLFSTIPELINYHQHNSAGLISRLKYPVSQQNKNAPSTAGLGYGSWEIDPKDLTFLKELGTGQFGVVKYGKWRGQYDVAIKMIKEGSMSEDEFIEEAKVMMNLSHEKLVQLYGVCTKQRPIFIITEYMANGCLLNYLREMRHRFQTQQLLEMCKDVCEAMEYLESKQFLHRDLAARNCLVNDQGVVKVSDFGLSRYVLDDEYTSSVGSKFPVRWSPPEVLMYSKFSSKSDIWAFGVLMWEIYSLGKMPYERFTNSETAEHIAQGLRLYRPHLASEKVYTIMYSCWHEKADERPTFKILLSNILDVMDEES
Specifically, about 80 μl of fresh human whole blood from healthy donors was transferred into each well of a 96-well V-bottom plate (Costar, Cat No. 3894). Using a TECAN™ D300e Digital Dispenser (Tecan)), 1:4 serially diluted compounds [(8 pt assay) in DMSO solution (final 0.2%) starting at 3 μM top concentration], were added in duplicate. Thereafter, plates were placed in a 37° C. incubator and incubated for 6 hours.
At the end of incubation, 80 μl of 2×CST lysis buffer (Cell Signaling Technology, Cat No. 9803), prepared from a 10× stock solution, was added per well to lyse the blood. Plates were then sealed with a plate sealer and the samples were frozen overnight at −80° C.
Total amount of BTK protein remaining in the blood samples after compound treatment was measured using MSD-ELISA. After thawing the frozen plates, blood lysates were mixed thoroughly and transferred to small spot high-bind MSD plates (Meso Scale Discovery, Cat No. L45XB-3) and coated with capturing antibody, rabbit anti-human BTK (D3H5) (Cell Signaling Technology, Cat No. 8547CF). Thereafter, primary detection antibody, mouse anti-human BTK monoclonal antibody, (BD Biosciences, Cat No. 611117) and secondary detection antibody, anti-mouse SULFO-TAG (Meso Scale Discovery, Cat No. R32AC-1) were added. The assay plates were read on an MSD S600 plate reader by the addition of 2×MSD read buffer (Meso Scale Discovery, R92TC-1). All reagent transfers, including blood lysis, was conducted using a Biomed i7 liquid handler. From the dose response curves, DC50 values were calculated by averaging data from duplicate experiments. and Curve fitting was done by non-linear regression using GraphPad Prism. The DC50 values are reported in Table 2 in the hWB BTK DC50 (nM) column The Dmax values represent the maximum amount of BTK degradation observed upon compound treatment compared to DMSO only treated samples. The dMax (%) values are reported in Table 2 in the hWB BTK dMax (%) column.
In general terms: In an ELISA, binding on a coated surface is turned into a signal by an enzyme label.

What is called Dmax is the greatest extent of degradation seen. With `Cc1cc(-c2cc(Nc3ccc(N4CCN(CCc5ccc(N6CCC(=O)NC6=O)cc5)C[C@@H]4C)cn3)ncn2)ccc1[C@@H](C)NC(=O)c1nc(C(C)(C)C)no1` [Example 1, 3-tert-butyl-N-[(1R)-1-{4-[6-({5-[(2S)-4-{2-[4-(2,4-dioxo-1,3-diazinan-1-yl)phenyl]ethyl}-2-methylpiperazin-1-yl]pyridin-2-yl}amino)pyrimidin-4-yl]-2-methylphenyl}ethyl]-1,2,4-oxadiazole-5-carboxamide], the Dmax is 100%.

The record behind these values is patent US12172992B2, “Pyrimidines for degrading Bruton's tyrosine kinase” (AbbVie Inc., priority 2022, dated 2024).
